Experimental data reported in article PMC12675575, “A BRET biosensor for measuring uncompetitive engagement of PRMT5 complexes in cells” (Nature Communications, 2025).
Values joined by “and” are separate entries in the source; they are usually repeats but may differ in a detail not shown here. Equal entries are not always repeated.

Experiments:
PRMT5-NL = molecular target: T1, PRMT5-NL (Homo sapiens, UniProt O14744); experiment: CBH-002 affinity curve, HEK293, PRMT5-NL fusion with empty carrier DNA (no WDR77); format: cell-based; design: unit not given here; conditions: Figure S2B NL-PRMT5, log([CBH-002])
T1 construct: host or cells: HEK293
Procedure: HEK293 cells (ATCC) were cultured in DMEM (Thermo Fisher) + 10% (v/v) FBS (Seredigm), and HCT116 cells (Horizon Discovery, #PAR-034 and #R02-033) were cultured in McCoy’s 5A (Thermo Fisher) + 10% FBS, with incubation in a humidified, 37 °C/5% CO2 incubator. Cells were split 1–3 days prior to performing experiments and used at roughly 80% confluency. […] Cells were transfected according to the manufacturer’s protocol using FuGENE HD (Promega). NanoLuc fusion DNA was diluted into Transfection Carrier DNA (Promega) in Opti-MEM at a ratio of 1:9 (mass/mass), and FuGENE HD was added at a ratio of 1:3 (μg DNA:μL lipid). For experiments using WDR77, untagged WDR77 DNA (Promega) was used in place of Carrier DNA. Formed complexes were combined with cells resuspended to a density of 2 × 10^5 cells/mL in Opti-MEM + 1% FBS at a ratio of 1:20 (vol:vol). Cells were plated into a flask and incubated at 37 °C in a humidified 5% CO2 atmosphere for 18–24 h, before being lifted and seeded into 96-well non-binding surface-treated plates (Corning). Cells were seeded at a density of 2 × 10^5 cells/mL in Opti-MEM + 1% FBS in 100 μL (96-well). The BRET probe CBH-002 was prepared first as a 100× stock in 100% DMSO (Sigma) and then diluted to a 20× stock in NanoBRET Tracer Dilution buffer (Promega). Test compounds were prepared as 1000× stocks in 100% DMSO and diluted to 10× stocks in Opti-MEM to prepare working stocks. […] NanoBRET Complete 3x Substrate was prepared by combining Nano-Glo Substrate and Extracellular NanoLuc Inhibitor in Opti-MEM, according to the manufacturer’s protocol (Promega). NanoBRET Complete 3× Substrate was added to cells and plates were measured on either a PheraSTAR FSX equipped with 450 nm (donor) and 610 nm (acceptor) filters, or a GloMAX Discover equipped with 450/8 nm BP (donor) and 600 nm LP (acceptor) filters, using a 0.3 s integration time.
EC50 values were obtained by fitting the BRET probe and compound affinity curves to a sigmoidal four-parameter fit model in Graphpad Prism:1 Y=Ymin+Ymax−Ymin/1+10^LogEC50−Xh where h is the Hill Slope.

NLuc-PRMT5 [1] = molecular target: T2, NLuc-PRMT5 (Homo sapiens, UniProt O14744); experiment: BRET probe CBH-002 binding kinetics (association, dissociation by GSK3326595) in live HEK293 cells; format: cell-based; design: host or cells: HEK293 (live cells; digitonin lysate for the SAM titration); Tracer association (Figure S3C): unit not given here
Procedure: To determine BRET probe binding kinetics, live HEK293 cells were treated with 30 nM CBH-002 and BRET measurements were read in 3 min intervals for 2 h at room temperature.

NLuc-PRMT5 [2] = molecular target: T2, NLuc-PRMT5; experiment: SAM titration against CBH-002 in HEK293 cell lysate (linear range of SAM detection); format: binding; design: host or cells: HEK293 (live cells; digitonin lysate for the SAM titration); conditions: for EC50: Figure S3B; for BRET signal, CBH-002 titration (Figure S3A): Log[CBH-002]
Procedure: To determine the linear range of SAM detection, HEK293 cells expressing NLuc-PRMT5 were lysed by addition of a 10x digitonin solution (Sigma), 500 µg/mL in Opti-MEM) and treated with a 1 mM, 4-fold, 11 pt dose-response series of SAM (Sigma) and a 1 µM 2-fold, 8 pt dose-response series of CBH-002. Lysate was incubated at RT for 30 min prior to reading BRET. Data was normalized using Eq. (2) above, with BRETMIN = BRET signal at lowest [CBH-002] + 0 µM SAM, and BRETMAX = BRET signal at 1 µM CBH-002 + 1 mM SAM. Data were fit using Eq. (3), and CBH-002 EC50 was plotted against [SAM] to determine the linear range of detection.

T1 sequence (O14744 whole entry, the tested form may be a part): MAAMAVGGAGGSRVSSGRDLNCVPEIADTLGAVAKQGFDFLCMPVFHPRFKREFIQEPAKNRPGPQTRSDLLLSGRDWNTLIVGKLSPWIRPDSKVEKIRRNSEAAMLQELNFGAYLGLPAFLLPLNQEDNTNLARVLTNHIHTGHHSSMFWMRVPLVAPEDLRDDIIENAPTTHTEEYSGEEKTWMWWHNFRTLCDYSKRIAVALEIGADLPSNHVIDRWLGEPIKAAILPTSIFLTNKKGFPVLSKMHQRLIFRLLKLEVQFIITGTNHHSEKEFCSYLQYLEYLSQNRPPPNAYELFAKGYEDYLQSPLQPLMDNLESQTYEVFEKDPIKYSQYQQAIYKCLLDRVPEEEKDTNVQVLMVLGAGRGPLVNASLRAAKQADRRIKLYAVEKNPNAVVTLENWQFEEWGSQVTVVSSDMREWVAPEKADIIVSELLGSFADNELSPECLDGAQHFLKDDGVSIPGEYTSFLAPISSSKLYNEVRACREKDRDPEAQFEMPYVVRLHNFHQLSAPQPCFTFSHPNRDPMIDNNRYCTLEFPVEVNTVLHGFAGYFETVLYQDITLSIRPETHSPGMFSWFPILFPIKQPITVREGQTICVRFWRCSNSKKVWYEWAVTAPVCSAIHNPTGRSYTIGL
T2 sequence (O14744 whole entry): as the sequence (O14744 whole entry, the tested form may be a part) above
T2 sequence (Q9BQA1 whole entry partner): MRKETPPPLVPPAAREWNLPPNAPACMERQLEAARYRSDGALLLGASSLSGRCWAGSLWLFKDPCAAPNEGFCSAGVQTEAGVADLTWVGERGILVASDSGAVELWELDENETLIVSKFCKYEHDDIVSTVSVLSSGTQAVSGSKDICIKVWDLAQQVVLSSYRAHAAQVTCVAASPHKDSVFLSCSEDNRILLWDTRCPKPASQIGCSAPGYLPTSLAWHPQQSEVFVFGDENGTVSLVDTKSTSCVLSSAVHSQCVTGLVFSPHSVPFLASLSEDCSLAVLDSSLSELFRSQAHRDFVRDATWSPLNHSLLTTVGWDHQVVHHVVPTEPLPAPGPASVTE

BRET, CBH-002 + DMSO (PRMT5-NL; uM -1.03342): 12.5404 and 13.4407 and 13.3166
BRET, CBH-002 + GSK3326595 (PRMT5-NL; uM -1.03342): 8.441 and 8.865 and 8.461
BRET, CBH-002 + DMSO (PRMT5-NL; uM -1.51055): 10.7353 and 11.0633 and 11.2052
BRET, CBH-002 + GSK3326595 (PRMT5-NL; uM -1.51055): 5.349 and 5.866 and 6.032
BRET, CBH-002 + DMSO (PRMT5-NL; uM -1.98767): 8.8779 and 8.604 and 8.921
BRET, CBH-002 + GSK3326595 (PRMT5-NL; uM -1.98767): 5.328 and 5.307 and 5.5055
BRET, CBH-002 + DMSO (PRMT5-NL; uM -2.46479): 7.2471 and 8.258 and 8.573
BRET, CBH-002 + GSK3326595 (PRMT5-NL; uM -2.46479): 3.609 and 3.848 and 3.767
BRET, CBH-002 + DMSO (PRMT5-NL; uM -2.94191): 6.802 and 7.308 and 6.803
BRET, CBH-002 + GSK3326595 (PRMT5-NL; uM -2.94191): 2.864 and 2.956 and 2.6211
BRET, CBH-002 + DMSO (PRMT5-NL; uM -3.41903): 6.051 and 5.88 and 6.095
BRET, CBH-002 + GSK3326595 (PRMT5-NL; uM -3.41903): 2.538 and 2.522 and 2.796
BRET, CBH-002 + DMSO (PRMT5-NL; uM -3.89615): 5.285 and 4.8415 and 5.242
BRET, CBH-002 + GSK3326595 (PRMT5-NL; uM -3.89615): 2.512 and 2.541 and 2.599
Tracer association (Figure S3C) (NLuc-PRMT5 [1]; Time (min) -27): 84.20 and 89.90 and 88.10 and 83.20
Tracer association (Figure S3C) (NLuc-PRMT5 [1]; Time (min) -30): 82.70 and 89.80 and 85.50 and 82.10
Tracer association (Figure S3C) (NLuc-PRMT5 [1]; Time (min) -33): 82.30 and 86.20 and 84.70 and 81.40
Tracer association (Figure S3C) (NLuc-PRMT5 [1]; Time (min) -36): 79.10 and 84.40 and 82.30 and 79.90
Tracer association (Figure S3C) (NLuc-PRMT5 [1]; Time (min) -39): 78.00 and 83.20 and 80.40 and 77.80
Tracer association (Figure S3C) (NLuc-PRMT5 [1]; Time (min) -42): 74.70 and 81.80 and 78.20 and 76.90
Tracer association (Figure S3C) (NLuc-PRMT5 [1]; Time (min) -45): 72.40 and 79.70 and 77.50 and 73.60
Tracer association (Figure S3C) (NLuc-PRMT5 [1]; Time (min) -48): 71.50 and 77.50 and 73.90 and 72.30
Tracer association (Figure S3C) (NLuc-PRMT5 [1]; Time (min) -51): 70.80 and 74.30 and 71.70 and 69.80
Tracer association (Figure S3C) (NLuc-PRMT5 [1]; Time (min) -54): 67.60 and 72.60 and 69.10 and 66.30
Tracer association (Figure S3C) (NLuc-PRMT5 [1]; Time (min) -57): 64.20 and 69.60 and 66.90 and 64.40
Tracer association (Figure S3C) (NLuc-PRMT5 [1]; Time (min) -60): 62.40 and 67.20 and 64.20 and 62.00
Tracer association (Figure S3C) (NLuc-PRMT5 [1]; Time (min) -63): 58.70 and 64.40 and 60.70 and 59.40
Tracer association (Figure S3C) (NLuc-PRMT5 [1]; Time (min) -66): 56.10 and 60.10 and 57.50
Tracer association (Figure S3C) (NLuc-PRMT5 [1]; Time (min) -69): 53.40 and 56.10 and 54.60 and 53.80
Tracer association (Figure S3C) (NLuc-PRMT5 [1]; Time (min) -72): 50.10 and 53.80 and 51.80
Tracer association (Figure S3C) (NLuc-PRMT5 [1]; Time (min) -75): 46.70 and 49.90 and 47.90 and 46.40
Tracer association (Figure S3C) (NLuc-PRMT5 [1]; Time (min) -78): 43.20 and 46.00 and 44.30 and 42.50
Tracer association (Figure S3C) (NLuc-PRMT5 [1]; Time (min) -81): 39.30 and 42.30 and 40.80 and 39.10
Tracer association (Figure S3C) (NLuc-PRMT5 [1]; Time (min) -84): 36.10 and 38.40 and 35.80
Tracer association (Figure S3C) (NLuc-PRMT5 [1]; Time (min) -87): 31.70 and 33.50 and 32.20 and 31.50
Tracer association (Figure S3C) (NLuc-PRMT5 [1]; Time (min) -90): 27.90 and 29.40 and 28.10 and 27.70
Tracer association (Figure S3C) (NLuc-PRMT5 [1]; Time (min) -93): 22.90 and 24.80 and 24.00 and 23.50
Tracer association (Figure S3C) (NLuc-PRMT5 [1]; Time (min) -96): 18.60 and 20.70 and 19.20
Tracer association (Figure S3C) (NLuc-PRMT5 [1]; Time (min) -99): 13.20 and 15.60 and 14.50
Tracer association (Figure S3C) (NLuc-PRMT5 [1]; Time (min) -102): 7.40 and 9.50 and 8.80 and 9.10
Time for BRET biosensor to reach equilibrium (NLuc-PRMT5 [1]; live cells, room temperature, 30 nM CBH-002): ~ 2 h
EC50 (NLuc-PRMT5 [2]; CBH-002 EC50 at [SAM] 0 uM): 1070 nM
EC50 (NLuc-PRMT5 [2]; CBH-002 EC50 at [SAM] 0.001 uM): 1220 nM
EC50 (NLuc-PRMT5 [2]; CBH-002 EC50 at [SAM] 0.004 uM): 722 nM
EC50 (NLuc-PRMT5 [2]; CBH-002 EC50 at [SAM] 0.06 uM): 232 nM
EC50 (NLuc-PRMT5 [2]; CBH-002 EC50 at [SAM] 250 uM): 10 nM
EC50 (NLuc-PRMT5 [2]; CBH-002 EC50 at [SAM] 1000 uM): 10 nM
BRET signal, CBH-002 titration (Figure S3A) (NLuc-PRMT5 [2]; uM 0.00, [SAM] 0 uM): 59.75 and 46.60 and 39.12
BRET signal, CBH-002 titration (Figure S3A) (NLuc-PRMT5 [2]; uM 0.00, [SAM] 0.001 uM): 52.48 and 47.57 and 38.98
BRET signal, CBH-002 titration (Figure S3A) (NLuc-PRMT5 [2]; uM 0.00, [SAM] 0.004 uM): 78.50 and 49.28 and 41.20
BRET signal, CBH-002 titration (Figure S3A) (NLuc-PRMT5 [2]; uM 0.00, [SAM] 0.06 uM): 102.12 and 63.12 and 56.12
BRET signal, CBH-002 titration (Figure S3A) (NLuc-PRMT5 [2]; uM 0.00, [SAM] 250 uM): 116.71 and 100.65 and 98.69
BRET signal, CBH-002 titration (Figure S3A) (NLuc-PRMT5 [2]; uM 0.00, [SAM] 1000 uM): 100.00
BRET signal, CBH-002 titration (Figure S3A) (NLuc-PRMT5 [2]; uM -0.60, [SAM] 0 uM): 35.92 and 26.69 and 20.78
BRET signal, CBH-002 titration (Figure S3A) (NLuc-PRMT5 [2]; uM -0.60, [SAM] 0.001 uM): 38.65 and 26.89 and 21.61
BRET signal, CBH-002 titration (Figure S3A) (NLuc-PRMT5 [2]; uM -0.60, [SAM] 0.004 uM): 42.58 and 27.46 and 22.13
BRET signal, CBH-002 titration (Figure S3A) (NLuc-PRMT5 [2]; uM -0.60, [SAM] 250 uM): 110.40 and 94.49 and 89.50
BRET signal, CBH-002 titration (Figure S3A) (NLuc-PRMT5 [2]; uM -0.60, [SAM] 1000 uM): 106.63 and 91.94 and 90.40
BRET signal, CBH-002 titration (Figure S3A) (NLuc-PRMT5 [2]; uM -1.20, [SAM] 0 uM): 18.29 and 13.11 and 9.32
BRET signal, CBH-002 titration (Figure S3A) (NLuc-PRMT5 [2]; uM -1.20, [SAM] 250 uM): 100.06 and 80.70 and 74.62
BRET signal, CBH-002 titration (Figure S3A) (NLuc-PRMT5 [2]; uM -1.20, [SAM] 1000 uM): 101.04 and 80.00 and 77.33
BRET signal, CBH-002 titration (Figure S3A) (NLuc-PRMT5 [2]; uM -1.81, [SAM] 250 uM): 80.32 and 48.77 and 48.32
BRET signal, CBH-002 titration (Figure S3A) (NLuc-PRMT5 [2]; uM -1.81, [SAM] 1000 uM): 90.24 and 46.55 and 49.90
Structure (SMILES): O=C(CCc1ccc2n1[B-](F)(F)[N+]1=C(c3ccc[nH]3)C=CC1=C2)NCCCCC(=O)N1CCC(Nc2cc(C(=O)NC[C@H](O)CN3CCc4ccccc4C3)ncn2)CC1 [CBH-002]
